The supplement of paper PMC13380429

Key:
Conditions in all cases: 72 h
Caco-2 [1] = test: cell viability relative to DMSO; higher = less toxic
Calu-3 [2] = test: as above
HepG2 [3] = test: as above
U2OS [4] = test: as above
Vero E6 [5] = test: as above
Caco-2 [6] = test: relative viability EC50 (midpoint between 100% and the lowest measured viability); higher = less toxic
Calu-3 [7] = test: as above
HepG2 [8] = test: as above
U2OS [9] = test: as above
Vero E6 [10] = test: as above
Caco-2 [11] = test: drug sensitivity score (DSS) for viability; higher = more toxic; extreme values may be limits of the assay
Calu-3 [12] = test: as above
HepG2 [13] = test: as above
U2OS [14] = test: as above
Vero E6 [15] = test: as above

Compound	cell viability (Caco-2 [1]; 1 nM) [%]	cell viability (Caco-2 [1]; 10 nM) [%]	cell viability (Caco-2 [1]; 100 nM) [%]	cell viability (Caco-2 [1]; 1000 nM) [%]	cell viability (Caco-2 [1]; 10000 nM) [%]	cell viability (Calu-3 [2]; 1 nM) [%]	cell viability (Calu-3 [2]; 10 nM) [%]	cell viability (Calu-3 [2]; 100 nM) [%]	cell viability (Calu-3 [2]; 1000 nM) [%]	cell viability (Calu-3 [2]; 10000 nM) [%]	cell viability (HepG2 [3]; 1 nM) [%]	cell viability (HepG2 [3]; 10 nM) [%]	cell viability (HepG2 [3]; 100 nM) [%]	cell viability (HepG2 [3]; 1000 nM) [%]	cell viability (HepG2 [3]; 10000 nM) [%]	cell viability (U2OS [4]; 1 nM) [%]	cell viability (U2OS [4]; 10 nM) [%]	cell viability (U2OS [4]; 100 nM) [%]	cell viability (U2OS [4]; 1000 nM) [%]	cell viability (U2OS [4]; 10000 nM) [%]	cell viability (Vero E6 [5]; 1 nM) [%]	cell viability (Vero E6 [5]; 10 nM) [%]	cell viability (Vero E6 [5]; 100 nM) [%]	cell viability (Vero E6 [5]; 1000 nM) [%]	cell viability (Vero E6 [5]; 10000 nM) [%]	relative viability EC50 (Caco-2 [6]) [µM]	relative viability EC50 (Calu-3 [7]) [µM]	relative viability EC50 (HepG2 [8]) [µM]	relative viability EC50 (U2OS [9]) [µM]	relative viability EC50 (Vero E6 [10]) [µM]	drug sensitivity score (Caco-2 [11])	drug sensitivity score (Calu-3 [12])	drug sensitivity score (HepG2 [13])	drug sensitivity score (U2OS [14])	drug sensitivity score (Vero E6 [15])
Cc1cc(C)nc(NS(=O)(=O)c2ccc(NC(=S)NC(=O)COc3ccc(Br)cc3Cl)cc2)n1 [ZCL-278]	97.7	102	104	92.2	98.7	98.4	94.8	103	104	107	108	98.1	100	96.4	98.4	95.6	100	93.5	97.9	93.8	93.4	97.5	101	103	95.9	> 10	> 10	> 10	> 10	> 10	0	0	0	0	0
CC(=O)N[C@@H](CS)C(=O)O [acetylcysteine]	105	87.1	98.1	101	100	101	101	93	96.2	104	99.2	103	94.9	103	104	99.1	97.2	100	95.5	102	104	106	102	103	97.8	> 10	> 10	> 10	> 10	> 10	0	0	0	0	0
COc1cc(C)c(/C=C/C(C)=C/C=C/C(C)=C/C(=O)O)c(C)c1C [acitretin]	89.3	93.2	99.3	89.4	91.4	97.5	94.8	83.9	83.5	75.3	101	96.7	98.7	106	105	100	101	94.4	93.7	92.1	103	99.6	99.6	99.3	102	> 10	> 10	> 10	> 10	> 10	0	3.8	0	0	0
Nc1cc(-c2ccncc2)c[nH]c1=O [amrinone]	96.2	97.1	92.4	91.8	95.9	94.9	95.7	93.7	93.9	109	96.2	100	104	97.8	97.3	104	98.3	105	98.9	108	95.5	96.2	86.6	100	106	> 10	> 10	> 10	> 10	> 10	0	0	0	0	0
Cc1cc2ncc(C(=O)NCC(C)(C)NCC(=O)N3CCC[C@H]3C#N)cn2n1 [anagliptin]	103	93.3	94.6	97.8	100	97.3	102	94.9	94.6	98.8	102	94.2	102	104	97.9	99.9	101	96.2	104	98.5	99.2	99.5	102	98.8	106	> 10	> 10	> 10	> 10	> 10	0	0	0	0	0
OC[C@H]1O[C@H]([S-])[C@H](O)[C@@H](O)[C@@H]1O.[Au+] [aurothioglucose]	108	92.2	98.7	91.3	84.2	101	92.1	97.3	106	100	90.4	106	106	120	97.5	96.1	98.4	98.7	91.8	27.4	87.3	91.2	86.7	89.5	117	> 10	> 10	> 10	2.24	> 10	0.5	0	0	5.4	0
CN(C)C(=O)Oc1cc(OC(=O)N(C)C)cc(C(O)CNC(C)(C)C)c1 (stereo not given) [bambuterol]	97.7	94.5	89.6	103	104	95.8	98.6	99.2	89.4	117	96.1	97.2	99.1	96.9	95.6	96.4	93.5	95.5	101	104	99.8	97.9	93.1	90.3	101	> 10	> 10	> 10	> 10	> 10	0	0	0	0	0
O=C(/C=C/c1cccc(S(=O)(=O)Nc2ccccc2)c1)NO [belinostat]	87.9	96.6	89.3	21.6	0.6	90.7	89.2	86.6	41	9.9	98.5	98.7	87.6	22.4	0.3	94.6	94.9	81.9	16	0.9	93.2	92.9	83.4	8.4	0.1	0.412	0.506	0.406	0.29	0.252	15.9	13.1	16	17.7	18.8
CC[C@H](CC[C@@H](C)[C@H]1CC[C@H]2[C@@H]3CC=C4C[C@@H](O)CC[C@]4(C)[C@H]3CC[C@]12C)C(C)C [beta-Sitosterol]	95.1	108	99.4	97.6	107	91.6	105	99	93.7	106	88.3	114	93.3	98.8	109	96.4	99.1	99.6	101	97.4	92.7	105	92.4	99.2	108	> 10	> 10	> 10	> 10	> 10	0	0	0	0	0
COC(=O)/C=C/C(=O)N[C@@H]1CC[C@@]2(O)[C@H]3Cc4ccc(O)c5c4[C@@]2(CCN3CC2CC2)[C@H]1O5 [beta-funaltrexamine]	104	91.5	90	94.8	82.4	95.2	99.5	101	102	99.6	93.6	92.8	92.4	90.6	89.2	104	98.7	101	96.3	89.9	92.4	96.1	93.1	105	101	> 10	> 10	> 10	> 10	> 10	0.7	0	0	0	0
Nc1cc(C(F)(F)F)c(-c2cc(N3CCOCC3)nc(N3CCOCC3)n2)cn1 [buparlisib]	95.3	99	91.5	53.5	18	116	97.3	87.7	40.5	18	100	96.6	95.7	67.2	10.5	103	102	104	79.4	15.6	101	97	92.9	66.2	17.8	0.761	0.434	1.3	1.57	1.22	10.3	12.7	9.1	7.9	8.4
CS(=O)(=O)OCCCCOS(C)(=O)=O [busulfan]	109	93.4	92.1	84.1	96.5	101	104	89.7	99.6	106	107	92.9	112	95.8	79.2	102	95.9	105	98.4	100	94.9	94.8	99.6	86.2	84.5	> 10	> 10	> 10	> 10	> 10	0.2	0	1.2	0	1.3
C=CCC1(CC(C)C)C(=O)NC(=O)NC1=O [butalbital]	82.1	114	80.1	105	102	94.5	96.7	102	103	114	108	99.6	92.5	109	94.8	95.1	97.6	98.8	94.3	112	105	106	118	109	89.9	> 10	> 10	> 10	> 10	> 10	0	0	0	0	0
CCCC[C@H]1OC(=O)c2ccccc21 [butylphthalide]	111	95.2	102	88.9	102	103	96.8	98.3	95.5	104	104	107	97.2	97.8	94.9	102	98.9	102	95	98.7	103	91	105	106	101	> 10	> 10	> 10	> 10	> 10	0	0	0	0	0
